Source: ChEMBL document CHEMBL1201862, “PubChem BioAssay data set” (2004)
Active and inactive are the calls of the source.

What was measured:
[1] = target: T1, Corticotropin-releasing factor receptor 2/Corticotropin-releasing factor-binding protein (Homo sapiens, UniProt P24387+Q13324); experiment: Dose Response confirmation of uHTS hits for small molecule antagonists of the CRF-binding protein and CRF-R2 receptor complex.; type: functional; conditions: read-out: IC50_Mean
T1 sequence (Q13324 whole entry): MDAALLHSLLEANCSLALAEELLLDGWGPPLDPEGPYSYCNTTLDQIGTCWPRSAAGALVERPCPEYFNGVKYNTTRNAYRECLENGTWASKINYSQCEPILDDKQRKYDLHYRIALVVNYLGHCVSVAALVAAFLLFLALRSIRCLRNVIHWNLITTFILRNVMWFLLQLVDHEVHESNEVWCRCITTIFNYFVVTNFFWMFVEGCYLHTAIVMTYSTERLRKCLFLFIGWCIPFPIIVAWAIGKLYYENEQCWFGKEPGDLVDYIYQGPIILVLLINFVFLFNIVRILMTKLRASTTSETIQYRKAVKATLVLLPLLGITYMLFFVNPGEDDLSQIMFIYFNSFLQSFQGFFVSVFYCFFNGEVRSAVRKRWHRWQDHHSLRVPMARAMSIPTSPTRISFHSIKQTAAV
T1 sequence (P24387 whole entry): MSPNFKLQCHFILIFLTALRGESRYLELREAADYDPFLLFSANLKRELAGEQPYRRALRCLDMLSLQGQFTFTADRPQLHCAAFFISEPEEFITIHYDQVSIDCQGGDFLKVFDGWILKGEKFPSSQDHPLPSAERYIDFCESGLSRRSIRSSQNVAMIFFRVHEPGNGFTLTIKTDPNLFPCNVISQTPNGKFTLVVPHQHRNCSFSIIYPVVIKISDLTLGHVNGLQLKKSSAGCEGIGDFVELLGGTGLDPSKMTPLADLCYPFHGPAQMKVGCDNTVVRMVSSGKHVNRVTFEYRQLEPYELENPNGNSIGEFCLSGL

[2] = target: T1, Corticotropin-releasing factor receptor 2/Corticotropin-releasing factor-binding protein; experiment: activators of CRF receptor 2 with binding protein – uHTS hits, confirmation (AID 602473); type: functional; conditions: read-out: EC50_Mean
[3] = target: T2, High affinity choline transporter 1 (Homo sapiens, UniProt Q9GZV3); experiment: human choline transporter blockers, potency – cell-based, 5-point CRC, membrane potential dye, dose response (AID 504840); type: functional
T2 sequence (Q9GZV3 whole entry): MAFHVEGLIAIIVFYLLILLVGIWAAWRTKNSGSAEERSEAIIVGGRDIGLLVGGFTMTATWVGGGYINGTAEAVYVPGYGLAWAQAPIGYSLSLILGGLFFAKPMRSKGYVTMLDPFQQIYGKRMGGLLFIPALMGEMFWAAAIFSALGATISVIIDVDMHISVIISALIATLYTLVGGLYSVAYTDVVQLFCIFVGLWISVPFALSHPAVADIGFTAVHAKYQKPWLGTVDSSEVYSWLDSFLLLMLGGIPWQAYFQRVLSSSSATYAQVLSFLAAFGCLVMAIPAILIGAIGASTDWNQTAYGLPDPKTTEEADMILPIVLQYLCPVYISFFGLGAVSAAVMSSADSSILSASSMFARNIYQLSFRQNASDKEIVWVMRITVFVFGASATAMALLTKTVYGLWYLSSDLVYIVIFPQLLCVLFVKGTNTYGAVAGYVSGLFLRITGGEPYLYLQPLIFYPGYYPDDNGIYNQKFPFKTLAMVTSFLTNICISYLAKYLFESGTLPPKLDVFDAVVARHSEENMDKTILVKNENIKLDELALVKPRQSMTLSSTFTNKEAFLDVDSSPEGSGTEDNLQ

Large T antigen = Large T antigen (Simian virus 40, UniProt P03070); type: functional, Betapolyomavirus macacae;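 further: Confirmatory-stage PubChem screen for compounds that inhibit SV40 T antigen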
Sequence of Large T antigen (P03070 whole entry): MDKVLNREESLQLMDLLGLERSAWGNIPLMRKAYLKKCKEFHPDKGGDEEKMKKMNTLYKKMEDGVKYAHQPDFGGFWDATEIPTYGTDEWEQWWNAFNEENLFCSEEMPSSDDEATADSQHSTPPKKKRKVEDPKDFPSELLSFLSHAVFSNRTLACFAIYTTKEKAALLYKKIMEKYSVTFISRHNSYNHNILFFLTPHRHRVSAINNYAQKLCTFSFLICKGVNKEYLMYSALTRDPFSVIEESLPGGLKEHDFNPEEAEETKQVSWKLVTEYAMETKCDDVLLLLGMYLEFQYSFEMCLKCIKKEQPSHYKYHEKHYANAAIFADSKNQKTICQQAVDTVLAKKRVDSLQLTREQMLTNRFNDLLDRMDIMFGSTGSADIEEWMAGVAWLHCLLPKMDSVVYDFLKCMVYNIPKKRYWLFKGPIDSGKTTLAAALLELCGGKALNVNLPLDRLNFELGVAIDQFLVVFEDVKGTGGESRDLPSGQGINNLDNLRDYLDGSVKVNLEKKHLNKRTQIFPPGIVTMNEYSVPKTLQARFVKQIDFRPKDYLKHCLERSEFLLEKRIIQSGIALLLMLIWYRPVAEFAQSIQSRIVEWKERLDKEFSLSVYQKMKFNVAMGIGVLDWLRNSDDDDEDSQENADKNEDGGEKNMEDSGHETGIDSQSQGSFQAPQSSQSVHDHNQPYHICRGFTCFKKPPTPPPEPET

[4] = system: Streptococcus sp. 'group A'; experiment: Streptococcus pyogenes SK(-)GAS viability under kanamycin – luminescence, BacTiterGlo, confirmation, counter-screen for streptokinase expression inhibitor project, dose response (AID 1900); type: functional, organism-based
Streptokinase A = target: T3, Streptokinase A (Streptococcus pyogenes serotype M1, UniProt P10520); experiment: viability-normalized secreted streptokinase activity reduction – plasminogen activation absorbance, OD405, dose response (AID 1914); type: functional, Streptococcus pyogenes M1 GAS;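 further: secreted streptokinase activity via plasminogen activation per viability signal from cell pellet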
T3 sequence (P10520 whole entry): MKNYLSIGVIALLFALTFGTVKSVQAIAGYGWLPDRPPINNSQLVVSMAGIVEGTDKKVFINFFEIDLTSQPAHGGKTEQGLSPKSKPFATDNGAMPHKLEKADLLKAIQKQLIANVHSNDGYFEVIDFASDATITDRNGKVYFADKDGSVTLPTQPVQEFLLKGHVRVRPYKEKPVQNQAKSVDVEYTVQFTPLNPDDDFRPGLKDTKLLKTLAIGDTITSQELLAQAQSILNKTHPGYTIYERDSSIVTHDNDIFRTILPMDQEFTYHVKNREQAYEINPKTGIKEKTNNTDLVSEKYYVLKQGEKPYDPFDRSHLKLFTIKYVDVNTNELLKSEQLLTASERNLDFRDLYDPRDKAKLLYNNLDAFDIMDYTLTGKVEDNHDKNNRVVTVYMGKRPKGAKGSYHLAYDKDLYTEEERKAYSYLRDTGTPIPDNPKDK

Streptococcus = experiment: GAS UMAA2166 growth inhibition – luminescence, BacTiterGlo, counter-screen for streptokinase expression inhibitor project, dose response (AID 1915); type: functional, organism-based;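 further: potency for reduction of bacterial viability or growth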
Fatty acid synthase [5] = target: T4, Fatty acid synthase (Homo sapiens, UniProt P49327); experiment: inhibition of human FAS-TE enzyme activity – biochemical, kinetic fluorescence intensity, dose response (AID 624326); type: functional;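 further: rate of fluorescence rise from hydrolysis of a fluorogenic O-methyl fluorescein ester substrate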
T4 sequence (P49327 whole entry): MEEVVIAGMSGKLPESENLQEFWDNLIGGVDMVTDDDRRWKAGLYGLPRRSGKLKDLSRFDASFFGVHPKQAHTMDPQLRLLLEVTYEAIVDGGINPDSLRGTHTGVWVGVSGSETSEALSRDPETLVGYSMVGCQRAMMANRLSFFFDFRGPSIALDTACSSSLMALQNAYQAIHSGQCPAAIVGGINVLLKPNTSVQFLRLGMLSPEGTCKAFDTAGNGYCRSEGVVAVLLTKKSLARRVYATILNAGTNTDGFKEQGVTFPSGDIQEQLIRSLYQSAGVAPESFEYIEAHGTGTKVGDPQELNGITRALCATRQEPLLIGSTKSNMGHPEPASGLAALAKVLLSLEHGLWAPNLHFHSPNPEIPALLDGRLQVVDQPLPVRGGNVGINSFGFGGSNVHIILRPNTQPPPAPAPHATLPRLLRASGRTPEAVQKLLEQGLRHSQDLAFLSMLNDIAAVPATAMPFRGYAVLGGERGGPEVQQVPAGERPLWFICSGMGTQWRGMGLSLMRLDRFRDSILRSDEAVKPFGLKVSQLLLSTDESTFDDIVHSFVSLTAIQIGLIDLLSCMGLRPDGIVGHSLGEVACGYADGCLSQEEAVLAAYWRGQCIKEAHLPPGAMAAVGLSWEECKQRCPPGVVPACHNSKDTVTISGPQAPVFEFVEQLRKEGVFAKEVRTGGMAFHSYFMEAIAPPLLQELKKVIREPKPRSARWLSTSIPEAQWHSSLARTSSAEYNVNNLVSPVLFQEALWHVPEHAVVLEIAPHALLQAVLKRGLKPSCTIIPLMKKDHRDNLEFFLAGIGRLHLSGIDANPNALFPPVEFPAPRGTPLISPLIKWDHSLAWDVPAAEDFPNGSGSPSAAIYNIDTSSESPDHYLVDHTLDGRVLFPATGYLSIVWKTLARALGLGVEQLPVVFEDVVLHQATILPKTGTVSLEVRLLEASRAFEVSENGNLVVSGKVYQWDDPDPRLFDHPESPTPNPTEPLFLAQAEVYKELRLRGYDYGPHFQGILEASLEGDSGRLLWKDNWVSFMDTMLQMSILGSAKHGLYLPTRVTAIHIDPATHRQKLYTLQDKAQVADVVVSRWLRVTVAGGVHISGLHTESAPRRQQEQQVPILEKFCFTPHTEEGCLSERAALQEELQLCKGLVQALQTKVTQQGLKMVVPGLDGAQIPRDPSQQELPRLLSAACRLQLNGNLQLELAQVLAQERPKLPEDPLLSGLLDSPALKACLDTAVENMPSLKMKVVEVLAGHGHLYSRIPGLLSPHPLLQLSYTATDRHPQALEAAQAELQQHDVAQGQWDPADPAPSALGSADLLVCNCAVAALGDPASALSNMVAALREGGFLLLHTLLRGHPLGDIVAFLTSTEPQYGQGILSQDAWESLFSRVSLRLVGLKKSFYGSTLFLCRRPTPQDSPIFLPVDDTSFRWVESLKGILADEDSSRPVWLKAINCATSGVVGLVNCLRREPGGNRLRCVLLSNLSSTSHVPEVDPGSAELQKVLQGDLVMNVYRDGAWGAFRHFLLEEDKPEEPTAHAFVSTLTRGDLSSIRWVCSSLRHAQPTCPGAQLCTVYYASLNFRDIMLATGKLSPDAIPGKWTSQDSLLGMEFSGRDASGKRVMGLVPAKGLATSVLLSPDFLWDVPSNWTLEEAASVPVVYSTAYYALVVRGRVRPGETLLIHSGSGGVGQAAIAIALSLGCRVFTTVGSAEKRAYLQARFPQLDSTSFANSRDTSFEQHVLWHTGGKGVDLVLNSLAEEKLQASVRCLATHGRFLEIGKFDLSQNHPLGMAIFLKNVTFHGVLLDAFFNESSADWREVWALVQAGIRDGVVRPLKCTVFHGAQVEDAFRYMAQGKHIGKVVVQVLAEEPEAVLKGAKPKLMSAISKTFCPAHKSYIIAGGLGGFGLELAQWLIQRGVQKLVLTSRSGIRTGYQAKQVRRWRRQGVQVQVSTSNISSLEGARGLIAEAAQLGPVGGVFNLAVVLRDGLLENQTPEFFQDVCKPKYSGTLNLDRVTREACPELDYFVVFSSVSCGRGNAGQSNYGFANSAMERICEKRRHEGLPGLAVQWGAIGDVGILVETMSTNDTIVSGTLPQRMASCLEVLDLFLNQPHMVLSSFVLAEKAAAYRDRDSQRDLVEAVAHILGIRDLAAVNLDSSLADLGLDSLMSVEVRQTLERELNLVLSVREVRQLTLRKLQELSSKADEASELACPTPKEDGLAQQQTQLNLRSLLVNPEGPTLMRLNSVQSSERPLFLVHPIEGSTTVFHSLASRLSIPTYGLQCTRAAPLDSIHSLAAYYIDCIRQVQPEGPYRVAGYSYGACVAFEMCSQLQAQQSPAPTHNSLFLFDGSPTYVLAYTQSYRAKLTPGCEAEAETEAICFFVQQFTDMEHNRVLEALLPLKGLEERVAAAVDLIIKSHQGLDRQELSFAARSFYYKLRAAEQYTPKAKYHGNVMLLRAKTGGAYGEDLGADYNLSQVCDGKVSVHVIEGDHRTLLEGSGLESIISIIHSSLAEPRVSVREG

Fatty acid synthase [6] = target: T4, Fatty acid synthase; experiment: inhibition of human FAS-TE enzyme activity – biochemical, endpoint fluorescence intensity, uHTS hits, dose response (AID 624327); type: functional;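 further: fluorescence from hydrolysis of an O-methyl fluorescein acyl ester substrate by the enzyme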
Cytochrome P450 1A2 = target: T5, Cytochrome P450 1A2 (Homo sapiens, UniProt P05177);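 further: PubChem cytochrome P450 panel assay, CYP1A2 panel member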
T5 sequence (P05177 whole entry): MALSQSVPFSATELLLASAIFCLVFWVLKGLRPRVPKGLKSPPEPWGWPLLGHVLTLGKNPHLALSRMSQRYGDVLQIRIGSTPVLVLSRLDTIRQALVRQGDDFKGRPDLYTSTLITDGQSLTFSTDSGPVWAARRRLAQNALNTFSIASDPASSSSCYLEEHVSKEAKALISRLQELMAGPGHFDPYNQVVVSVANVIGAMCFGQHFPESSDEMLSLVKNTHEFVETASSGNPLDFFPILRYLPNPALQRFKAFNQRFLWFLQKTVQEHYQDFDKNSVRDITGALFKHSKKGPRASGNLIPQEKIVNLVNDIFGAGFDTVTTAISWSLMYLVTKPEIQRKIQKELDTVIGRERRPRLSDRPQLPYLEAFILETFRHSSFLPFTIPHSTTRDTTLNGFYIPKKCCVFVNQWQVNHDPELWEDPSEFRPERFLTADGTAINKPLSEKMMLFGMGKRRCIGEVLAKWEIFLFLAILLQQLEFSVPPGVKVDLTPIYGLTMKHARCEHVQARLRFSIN

Cytochrome P450 3A4 = Cytochrome P450 3A4 (Homo sapiens, UniProt P08684);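 further: CYP3A4 tested as one member of a cytochrome P450 panel screen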
Sequence of Cytochrome P450 3A4 (P08684 whole entry): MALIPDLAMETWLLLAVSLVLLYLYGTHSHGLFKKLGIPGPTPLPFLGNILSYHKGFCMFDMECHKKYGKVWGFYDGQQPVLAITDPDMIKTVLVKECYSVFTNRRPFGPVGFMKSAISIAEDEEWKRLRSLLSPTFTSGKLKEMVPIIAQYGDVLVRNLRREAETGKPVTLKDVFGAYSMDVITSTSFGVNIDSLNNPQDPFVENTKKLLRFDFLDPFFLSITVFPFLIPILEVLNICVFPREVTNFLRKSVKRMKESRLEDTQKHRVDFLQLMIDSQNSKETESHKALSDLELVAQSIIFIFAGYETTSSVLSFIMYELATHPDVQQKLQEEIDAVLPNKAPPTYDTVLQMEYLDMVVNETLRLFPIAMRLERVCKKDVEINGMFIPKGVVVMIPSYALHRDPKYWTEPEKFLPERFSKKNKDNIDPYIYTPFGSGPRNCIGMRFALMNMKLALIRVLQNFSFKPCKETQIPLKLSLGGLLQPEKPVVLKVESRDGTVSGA

[7] = Luminescence Cell-Based Dose Response HTS to Identify Activators of Luciferase Translation or Activity in H4 […] Cells. [Related pubchem assays: 1829 (Project Summary), 1814 (Primary HTS)]; type: functional
H4 = experiment: Luminescence Cell-Based Dose Response HTS to Identify Activators of 5'UTR Stem-Loop Driven Prion Protein mRNA Translation in H4 Neuroglioblastoma Cells. [Related pubchem assays: 1829 (Project Summary), 1814 (Primary HTS)]; type: functional; conditions: Homo sapiens
[8] = Luminescence Cell-Based Dose Confirmation HTS to Identify Activators of 5'UTR Stem-Loop Driven Alpha-Synuclein mRNA Translation in H4 Neuroglioblastoma Cells. [Related pubchem assays: 1829 (Project Summary), 1814 (Primary HTS)]; type: functional
Paired box protein Pax-8 = Paired box protein Pax-8 (Homo sapiens, UniProt Q06710); experiment: PAX8 transcriptional activity inhibition in RMG-I – RMG-I cells, luciferase, cherry-pick, dose response (AID 687027); type: functional, cell-based;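 further: luciferase reporter driven by Pax8 target thyroperoxidase promoter measured by SteadyGlo luminescence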
Sequence of Paired box protein Pax-8 (Q06710 whole entry): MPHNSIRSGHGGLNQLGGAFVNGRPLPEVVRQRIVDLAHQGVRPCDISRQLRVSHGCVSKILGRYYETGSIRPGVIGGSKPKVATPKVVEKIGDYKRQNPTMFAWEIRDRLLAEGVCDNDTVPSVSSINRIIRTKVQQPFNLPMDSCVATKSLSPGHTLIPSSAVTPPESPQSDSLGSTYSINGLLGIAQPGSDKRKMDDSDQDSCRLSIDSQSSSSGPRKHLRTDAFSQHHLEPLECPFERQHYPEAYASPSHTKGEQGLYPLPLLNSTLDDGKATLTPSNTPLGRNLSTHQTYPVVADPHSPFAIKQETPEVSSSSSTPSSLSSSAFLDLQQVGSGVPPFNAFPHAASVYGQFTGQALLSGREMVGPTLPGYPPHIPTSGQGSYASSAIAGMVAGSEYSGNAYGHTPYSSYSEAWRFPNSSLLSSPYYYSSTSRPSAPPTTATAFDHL

CN1CC(=O)N(CC(=O)N2CCC(Cc3ccccc3)CC2)C1=O
IC50 [1]: > 47.1 µM (inactive) | EC50 [2]: > 53 µM (inactive)

CC(C)c1ccc(S(=O)(=O)N2CCC(C(=O)NCC3(N(C)C)CCCCC3)CC2)cc1
IC50 [3]: 12.6 µM (active)

CCn1c(SCC(=O)Nc2ccc(N(C)C)cc2)nnc1C1CC1
IC50 (Large T antigen): 9.49 µM (active)

COc1cc(CNc2ccc(N3CCCCC3)cc2)ccc1OCC(=O)NC(C)(C)C
IC50 (Large T antigen): 12.5 µM (active) | IC50 [3]: 6.55 µM (active)

CCOc1cc(N2CCOCC2)c(OCC)cc1NC(=O)Cc1ccccc1
IC50 [3]: 13.2 µM (active)

CC1CN(Cc2nc3c(c(=O)[nH]c(=O)n3C)n2CCCc2ccccc2)CC(C)O1 (configuration not stated)
EC50 [4]: > 150 µM (not active) | EC50 (Streptokinase A): > 150 µM (not active) | EC50 (Streptococcus): > 150 µM (not active)

C=CCN=C(S)Nc1ccc(N(C)C)cc1
IC50 (Large T antigen): 3.24 µM (active)

COc1cc(N(C)C)c([N+](=O)[O-])cc1C(=O)NC(C)CNc1ccc([N+](=O)[O-])cc1Cl (configuration not stated)
IC50 (Fatty acid synthase [5]): 5.79 µM (active) | IC50 (Fatty acid synthase [6]): 6.26 µM (active)

CCOC(=O)c1ccc(NC(=O)CN2C(=O)CSC2=O)cc1
IC50 [1]: > 47.1 µM (inactive) | EC50 [2]: > 53 µM (inactive)

CSCC[C@H](NC(=O)c1nn(C)c(=O)c2ccccc12)c1nc2ccccc2[nH]1
EC50 [4]: 1.06 µM (active) | AC50 (Cytochrome P450 1A2): 17.8 µM (inconclusive) | EC50 (Streptokinase A): > 150 µM (not active) | EC50 (Streptococcus): 19.8 µM (active) | AC50 (Cytochrome P450 3A4): 12.6 µM (inconclusive)

CC(C)C(=O)c1ccc(O)c(O)c1
IC50 (Large T antigen): 30.9 µM (active)

O=C(COc1ccccc1-c1ccccc1)NNC(=O)NC1CCCCC1
EC50 [7]: > 120 µM (not active) | EC50 (H4): > 120 µM (not active) | EC50 [8]: > 120 µM (not active) | IC50 [3]: 15.8 µM (active)

CCc1ccc(C(=O)COC(=O)c2cc([N+](=O)[O-])ccc2N2CCOCC2)cc1
IC50 (Fatty acid synthase [5]): 2.16 µM (active) | IC50 (Fatty acid synthase [6]): 1.75 µM (active)

CCCC(=O)NC(C)c1nc2ccccc2[nH]1 (configuration not stated)
IC50 [1]: > 47.1 µM (inactive) | EC50 [2]: > 53 µM (inactive)

COc1ccc(N2CCN(C(=O)c3cc(C)oc3C)CC2)cc1
EC50 [4]: > 150 µM (not active) | EC50 (Streptokinase A): > 150 µM (not active) | EC50 (Streptococcus): > 150 µM (not active)

O=C(Nc1cccc([N+](=O)[O-])c1)NC1CCCCCCC1
IC50 (Fatty acid synthase [5]): 15.2 µM (active) | IC50 (Fatty acid synthase [6]): 14.8 µM (active)

CC(=NNc1cc(C)c2ccccc2n1)c1ccccn1
AC50 (Paired box protein Pax-8): 7.4 µM (active)

O=C(CN1C(=O)NC2(CCCc3ccccc32)C1=O)N1CCc2ccccc2C1 (configuration not stated)
IC50 [3]: 13.5 µM (active)

O=C(COc1cccc(Oc2ccccc2)c1)Nc1ccc(SC(F)F)cc1
EC50 [4]: 14.4 µM (active) | IC50 (Fatty acid synthase [5]): 2.43 µM (active) | EC50 (Streptokinase A): 17.5 µM (active) | EC50 (Streptococcus): > 150 µM (not active) | IC50 (Fatty acid synthase [6]): 4.12 µM (active)

O=C(C[n+]1cccc2ccccc21)c1ccc(Br)cc1
IC50 [3]: 13.2 µM (active)

COc1ccc(S(=O)(=O)Nc2nc3ccccc3nc2NCc2ccc3c(c2)OCO3)cc1
IC50 [1]: > 47.1 µM (inactive) | EC50 [2]: > 53 µM (inactive)

COc1cc(OC)cc(C(=O)Nc2nc(CC(=O)NCc3ccccc3OC)cs2)c1
EC50 [4]: > 150 µM (not active) | EC50 (Streptokinase A): > 150 µM (not active) | EC50 (Streptococcus): > 150 µM (not active)

C[C@@H]1CN([C@@H](C)CO)C(=O)Cc2cc(NC(=O)CCC(F)(F)F)ccc2O[C@H]1CN(C)Cc1ccc(-c2ccccc2)cc1
AC50 (Paired box protein Pax-8): 8.61 µM (active)

Cc1cc(C)n(CCC(=O)N=Nc2c(O)[nH]c3ccc(Br)cc23)n1
IC50 [1]: > 47.1 µM (inactive) | EC50 [2]: > 53 µM (inactive)

CC(=O)OCCOCn1cnn2c(=O)c(Br)c(C)nc12
IC50 [3]: 13.5 µM (active)

CCOc1ccc(CCNC(=O)c2cccc(NC3=NC4CS(=O)(=O)CC4S3)c2)cc1OCC (configuration not stated)
IC50 [1]: > 47.1 µM (inactive) | EC50 [2]: > 53 µM (inactive)

CC1CCCCC1NC(=O)Cn1nnc(-c2ccc(Cl)cc2)n1 (configuration not stated)
IC50 [3]: 6.61 µM (active)

Cc1cccc2c(CCNC(=O)c3ccc([N+](=O)[O-])cc3)c[nH]c12
IC50 [1]: > 47.1 µM (inactive) | EC50 [2]: > 53 µM (inactive)

Cc1ccc(S(=O)(=O)N(C)C[C@@H]2Oc3c(NC(=O)c4ccc(-c5nccs5)cc4)cccc3C(=O)N([C@@H](C)CO)C[C@@H]2C)cc1
AC50 (Paired box protein Pax-8): 18.3 µM (active)

CC(C)c1ccc(CSc2ccc(S(=O)(=O)N3CCOCC3)cn2)cc1
IC50 (Fatty acid synthase [5]): 7.91 µM (active) | IC50 (Fatty acid synthase [6]): 5.98 µM (active)

O=C1NC(=S)S/C1=C/c1ccc(N2CCOCC2)o1
IC50 (Large T antigen): 18.4 µM (active)

CSCC[C@H](NC(=O)c1ccc(Cl)c([N+](=O)[O-])c1)c1nc2ccccc2[nH]1
IC50 (Fatty acid synthase [5]): 6.14 µM (active) | IC50 (Fatty acid synthase [6]): 11.1 µM (active)
